# Test results reported in patent US20190307754A1, “PDE9 INHIBITORS FOR TREATMENT OF PERIPHERAL DISEASES” (IMARA, INC., priority 2016, published 2019).
# “Also recorded” adds a separate entry of the source.
# What was measured:
# [1] = Stability study in purified water; format: physicochemical; conditions: approximately 40 mg/mL in purified water, refrigerated and ambient, 8 days
# Experimental: In another stability study, Compound P3.1 was dissolved at approximately 40 mg/mL of purified water, and evaluated for purity over a period of 8 days. Samples were stored at both refrigerated and ambient conditions, and tested at T=0, Day 2, and Day 8.
# [2] = Stability study of drug substance (ambient and 40-45 °C); format: physicochemical; conditions: ambient temperature and 40° C.−45° C., 3-month period
# Experimental: A stability study has been completed on Compound P3.1. Samples of Compound P3.1 were aliquoted into double-walled polyethylene pouches, which were tied off and then heat-sealed in an aluminum pouch. Samples were stored at ambient temperature and at 40° C.−45° C. (no humidity control) with testing performed over a 3-month period.
# conscious dogs = assay: Cardiovascular study in beagle dogs; format: in vivo, dog
# Experimental: (§1) The safety pharmacology assessment of Compound P3.1 included an in vitro hERG assay, neurofunctional and respiratory studies in rats, and a cardiovascular study in beagle dogs.
# In a cardiovascular study conducted in 4 dogs, treatments were performed by oral gavage according to a crossover design after allowing a minimum washout period of 48 hours. In conscious dogs, Compound P3.1 at doses of 10 and 25 mg/kg had no effect on arterial blood pressure, heart rate, body temperature, cardiac conduction times, ventricular repolarization duration, QT variability, or ST segment.
# [3] = Blood Brain Barrier penetration (brain-to-plasma distribution); format: in vivo; conditions: male CD mice, 10 mg/kg subcutaneous
# Experimental: Male CD mice (20-24 g) were housed pair-wise with free access to food and water for an acclimatization period of 3-7 days before initiation of experiments. Prior to dosing the animals were fasted overnight. During testing, mice were kept in individual cages. The brain-to-plasma distribution was assessed 30 minutes and 2 hours after subcutaneous administration of the test compound at a dose of 10 mg/kg (n=3 at each time point). The dose volume was 10 ml/kg using appropriate vehicle to solubilize each test compound. At the time of sampling, animals were anesthetized with isoflurane and a systemic blood sample collected by cardiac puncture into vacutainers containing sodium heparin as anti-coagulant. The blood was centrifuged at 3500 rpm for 10 minutes at 4° C. to obtain plasma. Following decapitation, brains were dissected out and transferred to pre-weighed vessels followed by tissue weights determination. Plasma and brains were stored at −80° C. until quantitative bioanalysis by LC-MS/MS. Results are expressed as ng/ml for plasma and ng/g for brain samples.
# Han Wistar Rats = assay: Neurofunctional study in Han Wistar rats; format: in vivo, rat
# Experimental: as §1
# Single oral doses of 250, 500, and 1000 mg/kg Compound P3.1 in Han Wistar Rats had no effect on clinical observations, home cage observations, handheld observations, or body temperatures.
# rat [4] = assay: Rat female fertility study; format: in vivo; conditions: female rat, 25, 100, or 200 mg/kg/d oral gavage
# Experimental: In a rat female fertility study, animal groups were given 0, 25, 100, or 200 mg/kg/d oral gavage of Compound P3.1. No treatment-related clinical signs were observed. […] There were no macroscopic necropsy findings that indicated an effect of Compound P3.1 administration.
# [5] = Plasma, brain and eye exposure in C57Bl/6J mice; format: in vivo; conditions: for concentration at 30 min: male, C57Bl/6J, mouse, plasma, oral, gavage, Day 5, 30 minutes after dosing
# Experimental: The exposure of both compounds was also evaluated in the plasma, brain, and eye. […] During the treatment period all animals were assessed for contextual fear conditioning and a subset of 7 animals per group was evaluated for locomotor activity. On Day 5, plasma, brain, and eye tissue were collected 30 minutes after dosing from 3 animals per treated group to measure concentrations of test item.
# [6] = biological target: hERG-mediated potassium currents (Homo sapiens, UniProt Q12809); assay: in vitro hERG assay; format: cell-based; conditions: concentrations up through 10^−5 M
# Source text: as §1
# [7] = Plasma protein binding, rat; format: in vitro ADME; conditions: read-out: mean plasma fraction bound (converted)
# [8] = Chromosome aberration study; format: cell-based
# Source text: The genotoxicity evaluation of Compound P3.1 consisted of a bacterial reverse mutation assay, a chromosome aberration study, and a in vivo rat micronucleus study. Compound P3.1 was negative in all 3 assays.
# [9] = Plasma protein binding, mouse; format: in vitro ADME; conditions: read-out: mean plasma fraction bound (converted)
# PDE1 = PDE1 inhibition assay; format: biochemical
# Experimental: Reactions were initiated by addition of the cyclic nucleotide substrate, and reactions were allowed to proceed for 1 h at room temperature before being terminated through mixing with 20 μL (0.2 mg) yttrium silicate SPA beads (PerkinElmer).
# rat [10] = assay: in vivo; format: in vivo
# Source text: as §1
# (§2) The death was considered test article related. […]
# in vivo = format: in vivo; conditions: rat, in vivo, 1000 mg/kg; read-out: plasma exposure (AUC0-24)
# Source text: as §1, §2
# [11] = tested on: TNF-α activated human endothelial cells; assay: Micro-channel PMN adhesion assay under flow (FIG. 9); format: cell-based
# Source text: In this study, the effects of Compound P3.1 on PMN adhesion to TNF-α activated human endothelial cell monolayers under flow conditions are investigated. It has been validated in vitro dynamic assay mimics neutrophil recruitment to endothelial cell monolayers under inflammatory conditions (TNF-α activation). In this assay, both control and sickle PMNs adhere to endothelial cells but to different degrees, reflecting in vivo conditions. The human dermal microvascular endothelial cell line HMEC-1 is used in this approach. The potential inhibitory effect of Compound P3.1 is tested in parallel and compared with the effect of HU and other PDE9 inhibitors.
# In a first step, the effects of 1 uM Compound P3.1 and 10 uM HU were tested by incubating blood samples from healthy volunteers (n=3-6) (i.e., donors or donor cells) with these molecules.
# Adhesion of PMNs from healthy volunteers was assessed under flow conditions, mimicking blood flow, in micro channels (Venaflux, Cellix, Ireland) coated with endothelial cell monolayers cultivated under inflammatory conditions. The adhesion assay was performed with whole fresh blood, previously incubated or not with Compound P3.1, to be closer to the physiological condition of circulation in a person, and to study the interaction between the different blood cells with PMNs.
# Sequence of hERG-mediated potassium currents (Q12809 whole entry): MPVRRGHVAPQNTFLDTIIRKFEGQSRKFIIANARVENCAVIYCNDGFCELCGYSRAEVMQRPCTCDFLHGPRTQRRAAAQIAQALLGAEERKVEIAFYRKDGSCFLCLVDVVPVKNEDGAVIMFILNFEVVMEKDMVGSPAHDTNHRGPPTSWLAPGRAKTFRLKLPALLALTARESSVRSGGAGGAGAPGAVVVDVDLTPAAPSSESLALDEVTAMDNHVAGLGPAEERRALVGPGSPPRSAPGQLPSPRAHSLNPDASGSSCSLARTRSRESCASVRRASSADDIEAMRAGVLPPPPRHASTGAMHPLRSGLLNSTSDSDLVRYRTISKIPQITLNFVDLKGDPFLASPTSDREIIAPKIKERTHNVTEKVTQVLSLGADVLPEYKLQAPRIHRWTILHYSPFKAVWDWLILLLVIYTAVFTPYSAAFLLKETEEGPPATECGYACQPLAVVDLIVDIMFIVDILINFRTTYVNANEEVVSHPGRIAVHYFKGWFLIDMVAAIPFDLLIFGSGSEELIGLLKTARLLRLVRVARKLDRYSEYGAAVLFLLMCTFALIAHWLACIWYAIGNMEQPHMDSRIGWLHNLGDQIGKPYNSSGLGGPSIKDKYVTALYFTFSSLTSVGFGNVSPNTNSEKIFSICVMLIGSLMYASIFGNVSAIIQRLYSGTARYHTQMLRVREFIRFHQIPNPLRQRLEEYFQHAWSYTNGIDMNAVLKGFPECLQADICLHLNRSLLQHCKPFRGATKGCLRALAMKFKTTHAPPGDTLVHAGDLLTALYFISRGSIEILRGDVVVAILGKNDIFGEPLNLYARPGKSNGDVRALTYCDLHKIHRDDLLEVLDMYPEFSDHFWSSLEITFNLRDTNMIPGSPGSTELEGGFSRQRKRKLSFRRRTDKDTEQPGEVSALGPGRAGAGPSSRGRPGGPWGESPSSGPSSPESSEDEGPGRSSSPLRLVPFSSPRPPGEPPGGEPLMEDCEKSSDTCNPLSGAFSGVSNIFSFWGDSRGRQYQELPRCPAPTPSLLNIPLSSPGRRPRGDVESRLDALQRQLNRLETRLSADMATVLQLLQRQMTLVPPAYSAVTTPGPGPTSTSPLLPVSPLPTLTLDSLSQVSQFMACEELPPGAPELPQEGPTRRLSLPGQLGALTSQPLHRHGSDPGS
smiles,measurement,setting,value
"C[C@@H]1CN(Cc2ncccn2)C[C@H]1c1cn2c(C3CCOCC3)ncc2c(=O)[nH]1 (single isomer, unassigned) [Compound P3.1]",stability: purity and appearance of solution,[1],No significant change to the purity of the compound or appearance of the solution
same,stability: appearance and purity of drug substance,[2],no changes to appearance or purity
same,cardiovascular effects,conscious dogs; oral gavage 75 mg/kg,"induced tachycardia as well as a slight, progressive and delayed decrease in blood pressure and shortened conduction times"
same,"arterial blood pressure, heart rate, body temperature, conduction times, repolarization, QT variability, ST segment",conscious dogs; oral gavage 10 and 25 mg/kg,no effect
same,Plasma concentration after 30 minutes,[3]; 30 min,30 min.: 1620 ng/mL
same,Plasma concentration after 120 minutes,[3]; 120 min,120 min.: 226 ng/mL
same,Kp at 0.5 h,"[3]; mouse, brain, sc, 30 min, read-out: Brain/Plasma ratio after 30 minutes",0.04
same,Kp at 2 h,"[3]; mouse, brain/plasma, sc, 120 min, read-out: Brain/Plasma ratio after 120 minutes",0.03
same,adverse finding,"Han Wistar Rats; >500 mg/kg, 0.5 and 24 hours post dosing",increased incidence of no visible-approach response
same,non-adverse findings at 250 mg/kg,Han Wistar Rats; single oral 250 mg/kg,transient decrease in sensory response (approach response)
same,non-adverse findings at 500 and 1000 mg/kg,Han Wistar Rats; single oral 500 and 1000 mg/kg,"decreases in body weight/weight gain, motor activity (number of rears), and sensory response (tail pinch response)"
same,"clinical, home cage, handheld observations, body temperatures","Han Wistar Rats; single oral doses of 250, 500, and 1000 mg/kg",no effect
same,early embryonic development,rat [4],no adverse effect
same,pre- or post-implantation loss,rat [4],no effect
same,eye tissue level relative to AF27873,[5]; 10 and 30 mg/kg/day,3 fold lower
same,concentration at 30 min,[5]; 10 mg/kg/day,3.84 µM
same,concentration at 30 min,[5]; 30 mg/kg/day,9.91 µM
same,plasma to brain ratio,[5]; repeated administration,approximately 14
same,inhibitory effect on hERG-mediated potassium currents,[6],did not have an inhibitory effect; also recorded: no inhibitory effect
same,fraction unbound,[7],0.748
same,"genotoxicity, chromosome aberration study",[8],negative
same,fraction unbound,[9],0.767
same,IC50,PDE1,3000 nM
same,mortality,"rat [10]; 1000 mg/kg, approximately 4.8 hours after dosing",One male rat was found dead
same,exposure relative to anticipated efficacious dose,"rat [10]; rat, in vivo",approximately 48 fold
same,respiratory functions,"rat [10]; rat, in vivo, po, 1000 mg/kg",transient increases in respiratory rate and tidal volume
same,AUC(0-t),in vivo,> 500 µg·h/mL
same,adhesion of low-binding donor cells,"[11]; 1 uM Compound P3.1, whole blood of healthy volunteers",no effect
same,adhesion of high-binding donor cells,"[11]; 1 uM Compound P3.1 or 10 uM HU, whole blood of healthy volunteers",reduced the adhesion of 3 of 4 high-binding donors
